From patent US8524978B2, “Composition for production of plant body having improved sugar content, and use thereof” (Japan Science and Technology Agency, priority 2007, dated 2013)

System: Zea mays L. var. saccharata Sturt
Test: Cultivation of Zea mays L. var. saccharata Sturt with GSSG, sensory test (Example 4)
Type: in vivo
Conditions: 200 mL of 0.5 mM at root twice a week for 12 weeks
From the text: In the present example, Zea mays L. var. saccharata Sturt was cultivated under a condition different from Example 3 in how to apply GSSG. First, a Zea mays L. var. saccharata Sturt seed (TAKII & CO. Ltd., product number: Canberra 90) was sown in vermiculite (ASAHI INDUSTRIES Co., LTD.). One week after sowing, a Zea mays L. var. saccharata Sturt plant was transplanted to a hydroponic culture pot described in Example 1. To the plant, 3 g of Kumiai phosphorate ammonium nitrate potassium S-604 (Chisso Asahi Fertilizer Co., Ltd.) was applied as an additional fertilizer 4 weeks and 6 weeks after the sowing.
During 12 weeks after germination, 200 mL of 0.5 mM GSSG was applied at a root of the plant twice a week. For comparison, a Zea mays L. var. saccharata Sturt plant was cultivated by the same method as in the present example, except that GSSG was not applied, and fruit thereof was harvested.
Fruit was harvested 12 weeks after the sowing and subjected to a sensory test of sugar content. As a result, it was determined that fruit of the plant applied with GSSG increased in sugar content compared to that of the plant applied with no GSSG. Further, it was determined that the plant applied with GSSG increased in size and number of fruit.

oxidized glutathione [GSSG]
increased: number of fruit | size of fruit | sugar content of fruit (sensory test) (vs no GSSG)
